Reference: US8791046B2, “Crystalline modification of fipronil” (BASF SE, priority 2006, dated 2014)

Key:
[1] = Solubility and dissolution rate in solvents; assay type: physicochemical; settings: in most solvents
[2] = Stability of the acetone solvate crystal form at ambient conditions; assay type: physicochemical; settings: co-crystallized acetone solvent is volatile at ambient conditions

In the case of fipronil [crystalline modification IV], the dissolution rate [1] is reported as “remarkable high”, the solubility [1] is reported as “remarkable high” and the “stability of the crystalline modification” value [2] is reported as “remarkable stability”.
